The target in this assay is T1, ADAR1p150 (Zα domain) (Homo sapiens, UniProt P55265).
T1 sequence (P55265 133-199 limits assumed): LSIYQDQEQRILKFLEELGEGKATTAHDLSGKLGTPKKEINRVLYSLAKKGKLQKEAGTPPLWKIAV
Briefly: MST titration. Format: binding.

A value given as a limit tells only on which side of the number the result lay.

Turning to `O=C(O)c1cc(=O)c2c(OCC(O)COc3cccc4oc(C(=O)O)cc(=O)c34)cccc2o1` [cromolyn], the dissociation constant (Kd) is > 774 µM.

The term Kd denotes the equilibrium constant for the complex coming apart. Read a high Kd as a looser complex.

The record behind these values is PMC12514971 (Protein science : a publication of the Protein Society, 2025).
